Assays:
[1] = Chloride efflux from SPQ-containing liposomes; details: 100% EPG liposomes, pH 6.1, 3 μg/ml
Method: Preparation of liposomes. Large unilamellar liposomes were prepared by reverse phase evaporation as previously described (Vecsey-Semjen et al., 1996). Liposomes were prepared of either 100% egg phosphatidylglycerol (EPG) or a mixture of EPC and EPG (1:1 W/W) in a buffer containing 100 mM KCl, 20 mM N-[2-Hydroxyethyl]piperazine-N′-[2-ethane-sulfonic acid] (HEPES), pH 7.4 and 1.5 mg/ml of 6-methoxy-N-(3-sulfopropyl)quinolinium (SPQ).
Choride efflux measurements. All fluorescence experiments were carried out using a PTI spectrofluorometer equipped with a thermostated cell holder (37° C.). The dye was excited at 350 nm and emission was recorded at 422 nm, both excitation and emission band widths were set to 5 nm. Liposomes were diluted to a final concentration of 50 μg/ml in a solution containing 100 mM KNO3 and 20 mM MES pH 6.1 or 20 mM HEPES, pH 7.4. Wild type and mutant TNF were added to a final concentration of 3 μg/ml.

[2] = tested on: resident peritoneal macrophages from mice deficient in both TNF receptor-1 and -2; experiment: Whole-cell patch clamp in resident peritoneal macrophages of TNFR1/2-deficient mice; assay type: cell-based, mouse; details: cells lacking TNF receptors
From the text: (§1) Animals, cells and reagents. Male CBA/J or C57BL/6 mice, as well as male TNFR ½^0/0 C57BL/6 mice deficient in TNF receptors (Bruce et al., 1996) provided by H. Bluethmann, F. Hoffmann-La Roche, Basel, Switzerland, were used at the age of 8–10 weeks. Their care was in accordance with institutional guidelines. Lung microvascular endothelial cells were isolated from CBA/J mice and characterized as described (Jackson et al., 1990) using magnetic beads (Dynabeads M-450, Dynal, Oslo, Norway), covalently bound to a purified rat-anti-mouse PECAM-1 monoclonal antibody (donated by B. Imhof, University of Geneva). Microvascular lung endothelial cells were resuspended in DMEM containing 2 mM L-glutamine, 100 U/ml penicillin, […], 20% FCS, 40 U/ml heparin and […] endothelial cell growth supplement (Brunschwig Chemie, Basel, Switzerland). For patch clamp experiments, cells were plated onto 35×10 mm easy grip Petri dishes (Beckton Dickinson, Plymouth, UK), pre-coated with 0.2% gelatin (Sigma, Buchs, Switzerland). Resident peritoneal macrophages, isolated in ice cold RPMI containing antibiotics and 10 U/ml Heparin, were left to adhere onto 35×10 mm easy grip Petri dishes for 4 h, after which the non-adherent cells were removed. […]
(§2) Electrophysiology. […] Currents were recorded with an Axopatch-200A amplifier (Axon Instrument Inc, Foster City, Calif., USA), low pass-filtered at 1 kHz. […]

[3] = tested on: lung microvascular endothelial cells; experiment: Whole-cell patch clamp, membrane conductance in lung microvascular endothelial cells; assay type: cell-based, mouse
From the text: Animals, cells and reagents. Male CBA/J or C57BL/6 mice, as well as male TNFR ½^0/0 C57BL/6 mice deficient in TNF receptors (Bruce et al., 1996) provided by H. Bluethmann, F. Hoffmann-La Roche, Basel, Switzerland, were used at the age of 8–10 weeks. Their care was in accordance with institutional guidelines. Lung microvascular endothelial cells were isolated from CBA/J mice and characterized as described (Jackson et al., 1990) using magnetic beads (Dynabeads M-450, Dynal, Oslo, Norway), covalently bound to a purified rat-anti-mouse PECAM-1 monoclonal antibody (donated by B. Imhof, University of Geneva). Microvascular lung endothelial cells were resuspended in DMEM containing 2 mM L-glutamine, 100 U/ml penicillin, […], 20% FCS, 40 U/ml heparin and […] endothelial cell growth supplement (Brunschwig Chemie, Basel, Switzerland). For patch clamp experiments, cells were plated onto 35×10 mm easy grip Petri dishes (Beckton Dickinson, Plymouth, UK), pre-coated with 0.2% gelatin (Sigma, Buchs, Switzerland). Resident peritoneal macrophages, isolated in ice cold RPMI containing antibiotics and 10 U/ml Heparin, were left to adhere onto 35×10 mm easy grip Petri dishes for 4 h, after which the non-adherent cells were removed. Cells were grown in RPMI 1640 containing 2 mM L-glutamine, 100 U/ml penicillin, 10 μpg/ml streptomycin and 10% fetal bovine serum (all from Gibco). For patch clamp, the macrophages ware used 24 h after isolation.
Electrophysiology. Cells were pretreated for 30 min with TNF, mutTNF and tip peptides at 37° C. in a buffer consisting of 145 mM NaCl, 3 mM KCl, 2mM CaCl2, 2mM MgCl2, 10 mM D-glucose, and 10mM Hepes, and pH-adjusted with NaOH to required value. Cells were then washed with the same buffer pH-adjusted at 7.3, and experiments were performed using the tight-seal, whole-cell recording technique. Currents were recorded with an Axopatch-200A amplifier (Axon Instrument Inc, Foster City, Calif., USA), low pass-filtered at 1 kHz. Digitalization and off-line analysis was performed using the WCP program (J. Dempster, Strathclyde Electrophysiology Software, Glasgow, UK). Patch pipettes were pulled from borosilicate glass and fire polished to have an open resistance of 3–5 MW with an internal solution containing […], 2 mM MgCl2, 10mM EGTA, 20 mM TEA-Cl, 10 mM D-glucose 10 mM Hepes, pH-adjusted to 7.3 with CsOH. Series resistances were kept under 10 MW. Capacitance and series resistance compensation were applied and set to 70%. All experiments were done at room temperature. Results are given as mean ±SEM, unless otherwise indicated. Analysis of variance was performed on currents and membrane conductance values, with post-hoc Dunn-Bonferroni test for significance of differences observed between two groups. A P value of 0.05 was considered significant.

isolated rat lungs = experiment: Isolated blood perfused flooded rat lung (weight, lung mechanics, PV curves, histology)
Method: Rats. For the ex vivo experiments, 31 Sprague-Dawley rats (300 to 350 g) were tracheotomized and mechanically ventilated (40% oxygen in air) under isoflurane anesthesia. The experimental protocol was reviewed and approved by the Ethics Committee for Animal Research and by the Veterinary Office of our institution. The femoral vessels were cannulated for blood sampling, fluid replacement, and continuous arterial blood pressure monitoring. Following anticoagulation (1.5 IU/g i.v. heparin), 20 ml of blood were withdrawn and replaced by an equal volume of dextran-40 (Macrodex 10% in normosaline) to serve as priming volume for the isolated perfusion circuit. The heart-lung block was prepared as described by Ma et al., 2000, weighed and assigned to one of four groups. […] The lungs were suspended, mechanically ventilated, and perfused at constant pressure with autologous blood as described by Ma et al., 2000.
An inspiratory and expiratory quasi-static pressure-volume (PV) curve was performed at the end of the 2-hour reperfusion period by inflating and then deflating the lungs at a constant rate (0.3 ml/sec) using an automated infusion pump. A sigh was applied in all groups every 15 minutes to minimize atelectasis formation. The blood pH was maintained between 7.3 and 7.5 and, if necessary, corrected with sodium bicarbonate 8.4% or a change of the inspired CO2 as required by the blood gas analysis. Every 30 minutes, a blood sample was collected for blood gas analysis as well as for hematocrit and electrolyte concentration.
Inclusion criteria. Immediately following the start of reperfusion, the preparation had to fulfill three technical inclusion criteria: • 1) left atrial pressure (LAP) 5-10 mmHg; • 2) peak airway pressure (AWP) <15 cmH2O; and • 3) pulmonary blood flow (PBF) >10 ml/min. […] The included lungs were then flooded with gentle intratracheal instillation of 2 ml normal saline and the recorded variables measured for 2 subsequent hours.
Histological analysis. Random lung samples were fixed for light and electron microscopy and analyzed by pathologists blinded to the lung's protocol group assignment.

[4] = tested on: resident peritoneal macrophages; experiment: Whole-cell patch clamp in resident peritoneal macrophages; assay type: cell-based, mouse; details: 30 min preincubation, acidic pH
From the text: as §1, §2

[5] = Quenching of tryptophan fluorescence by brominated lipids; details: acidic pH
From the text: In order to investigate whether chloride efflux was due to membrane binding or membrane insertion of TNF, we have analyzed whether brominated lipids were able to quench the intrinsic fluorescence of TNF and mutTNF upon membrane interaction. Brominated lipids have been useful in determining the topology of membrane proteins (Bolon et al., 1990) (Markello et al., 1985) as well as studying the membrane interaction of pore-forming toxins (Gonzalez-Manas et al., 1992) (Van der Goot et al., 1991) (Vecsey-Semjen et al., 1997). TNF contains two tryptophan residues, one at the top of the receptor binding domain and one at the top of the so called tip domain. If the tip of the TNF trimer were to insert into the lipid bilayer, the fluorescence of Trp-113 should be quenched upon insertion into liposomes composed of dioleoylphosphatidylglycerol that had bromines attached at positions 9 and 10 of the acyl chains. We have indeed previously observed that tryptophans located at the boundary between the lipid head groups and the acyl chains were succeptible to bromide quenching.

normal rats = details: instillation in normal rats, over 1 hour; cited from earlier work

Substance: TNF: E.coli-derived recombinant murine TNF
- chloride efflux (SPQ fluorescence) [1]: induced chloride efflux
- whole cell current [2]: induced a voltage-dependent current
- induced increase in conductance in presence of amiloride ([3]; 100 μM amiloride added during pretreatment at pH 6.0): abrogated
- whole cell current / membrane conductance ([3]; 30 min preincubation at acidic pH (pH 6), TNF, mutTNF 100 ng/ml, peptides 100 μg/ml): significant increase in outward and, to a lesser extent, inward current
- reversal potential of induced conductance ([3]; endothelial cells): about 0 mV
- whole cell current / membrane conductance ([3]; preincubation at pH 7.3 (neutral pH)): did not occur
- lung weight change over time after alveolar flooding (isolated rat lungs; 2 hours reperfusion after 2 ml saline, TNF 5 μg, peptides 1 mg): no significant change in weight over time
- lung mechanics (peak AWP, Cdyn, Raw) after alveolar flooding (isolated rat lungs; 2 hours reperfusion, TNF 5 μg, peptides 1 mg): no difference from the saline-treated group
- lower inflection point of inspiratory quasi-static PV curve (isolated rat lungs; end of 2-hour reperfusion, TNF 5 μg, peptide 1 mg): 20.0±0.8 cmH2O
- leukocyte infiltration (lung histology) (isolated rat lungs; hematoxylin-stained slices, compared to controls): significantly increased leukocyte infiltration
- endothelial flaps and epithelial blebs (electron microscopy) (isolated rat lungs; pretreated lungs after flooding and 2 hours reperfusion): prominent numerous endothelial flaps
- whole cell current [4]: significant increase in outward
- fluorescence quenching by brominated lipids [5]: unable to see any fluorescence quenching
- increase of alveolar liquid clearance (normal rats): 43%

Reference: US7258861B2, “TNF-derived peptides for use in treating oedema” (Innogenetics N.V., priority 2001, dated 2007)
